Measurements from article PMC3189179, “Rapid Development of New Protein Biosensors Utilizing Peptides Obtained via Phage Display” (PLoS ONE, 2011).

How the values were obtained:
ALT (human liver) [1] = molecular target: T1, ALT (human liver) (Homo sapiens, UniProt P24298); assay: EIS detection of ALT with peptide-modified gold electrode; type: binding; settings: biosensor made from the peptide coupled with EIS detection
T1 construct: ALT (human liver) and lactate dehydrogenase (LDH) were obtained from Lee Biosolutions, Inc; purchased Lee Biosolutions, Inc. (St. Louis, Missouri); host or cells: human liver
T1 sequence (P24298 2-496 limits assumed): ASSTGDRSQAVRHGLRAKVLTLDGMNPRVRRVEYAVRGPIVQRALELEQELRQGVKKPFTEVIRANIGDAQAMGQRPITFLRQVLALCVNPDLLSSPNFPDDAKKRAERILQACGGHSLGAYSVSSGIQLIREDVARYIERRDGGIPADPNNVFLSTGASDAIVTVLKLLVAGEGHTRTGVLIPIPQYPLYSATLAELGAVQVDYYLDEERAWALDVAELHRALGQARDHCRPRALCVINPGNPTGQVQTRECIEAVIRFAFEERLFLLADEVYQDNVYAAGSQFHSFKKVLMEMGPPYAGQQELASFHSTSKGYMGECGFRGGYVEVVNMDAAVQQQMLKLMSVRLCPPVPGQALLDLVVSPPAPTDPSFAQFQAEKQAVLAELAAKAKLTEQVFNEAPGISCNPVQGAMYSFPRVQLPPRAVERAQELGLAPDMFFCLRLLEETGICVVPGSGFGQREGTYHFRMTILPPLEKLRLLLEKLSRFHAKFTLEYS
Description: All electrochemical measurements were performed with a µAUTOLAB potentiostat (Type III, FRA2, Metrohm Autolab, Netherlands). A gold wire (dia. 1 mm) sealed in epoxy was used as a working electrode and a platinum mesh was used as a counter electrode. All potentials measured are reported versus a Ag/AgCl reference electrode. Both cyclic voltammetry and EIS measurements were conducted in a solution of 1 mM ferro/ferricyanide in 0.1 M sodium perchlorate.
CV and EIS were performed as previously described. Briefly, the gold electrodes were prepared in 0.1 mM peptide solution for 1 hr, followed by backfilling in 1 mM cysteine solution for 2 hr to obtain a Au-Pep-Cys electrode. The Au-Pep-Cys electrodes were incubated in ALT solution for 1 hr before CV and EIS measurements. After each electrode preparation step, the electrode is removed and placed into solutions of 1 mM ferro/ferricyanide in 0.1 M NaClO4for analysis. Therefore, all the electrochemical measurements were conducted in the ferro/ferricyanide solution which eliminates the effect of any potential viscosity differences between the sample solutions. CV experiments were performed at a potential scan rate of 100 mV/s. Impedance spectra were recorded over a frequency range of 0.1–10^5 Hz. […] The impedance was recorded and a Nyquist plot was obtained. […]

ALT (human liver) [2] = molecular target: T1, ALT (human liver); assay: Biopanning of phage-displayed peptide library over immobilized ALT; type: binding; settings: 12 phage clones after fifth round of biopanning against ALT
Description: ALT (2.6 µg/mL) was dissolved in NaHCO3 buffer (100 mM, pH 8.3) and transferred to the wells of polystyrene microplates. After overnight incubation with mild agitation at 4°C, the well surfaces were coated with ALT. The well surfaces were then blocked with blocking buffer (0.1 M NaHCO3 containing 2% BSA and 0.02% of NaN3) for 1 hr at 4°C, and washed 6 times with TBST (50 mM Tris-HCl pH 7.5, 150 mM NaCl, 0.1% Tween 20) to remove weakly bound ALT. […] Wells were washed 10 times with TBST to remove unbound phage. The bound phage were eluted with 100 µL of 0.2 M glycine-HCl (pH 2.2) and the elution was immediately neutralized with 15 µL Tris-HCl (1 M, pH 9.1) to prevent phage killing. The eluted phage were amplified in E. coli ER2738 and the phage were harvested by precipitation with NaCl/polyethylene glycol (20% (w/v) polyethylene glycol-8000 with 2.5 M NaCl). This biopanning process was repeated for five rounds. The concentration of Tween 20 in the washing step was increased from 0.1% in the first round of panning to 0.3% in the second round of panning and 0.5% in the final three rounds of panning. After each round of panning, the phage were titered using Luria-Bertani (LB) broth plates containing isopropyl β-D-thiogalactopyranoside (IPTG) and X-gal. After the fifth round of selection, twelve blue monocolonies were randomly picked and amplified for DNA sequencing.

ALT (human liver) [3] = molecular target: T1, ALT (human liver); assay: ELISA for phage clone binding to immobilized ALT; settings: 10^5 to 10^11 pfu, triplicate, 405 nm, 1 hr room temperature
Description: To test whether or not the selected phage clones from the biopanning procedure could bind to ALT, ELISA assays were performed. Microplates were coated with ALT (2.6 µg/mL) overnight at 4°C, blocked with blocking buffer, and washed 6 times with TBST solution (containing 0.1% Tween 20). Varying amounts of amplified phage clones were added to each well and incubated for 1 hr at room temperature. After washing, HRP-conjugated anti-M13 monoclonal antibody (diluted 1∶5000 in blocking buffer) was added and incubated at room temperature for 1 hr. Following incubation and washing again with the same buffer, ABTS and H2O2 (30%, v/v) were added and the absorbance was measured after a 1 hr incubation with mild agitation at 405 nm with a microplate spectrophotometer (Molecular Devices, Sunnyvale, CA).
In order to estimate the apparent dissociation constant for the ALT5-8 clone, further ELISA experiments were performed with extended phage concentrations. The data were fit to a Langmuir isotherm using non-linear regression (SigmaPlot, San Jose, CA) and the Kd,app was determined.

ALT (human liver) [4] = molecular target: T1, ALT (human liver); assay: Coupled enzyme assay (ALT/LDH, NADH depletion): peptide inhibition of ALT, bi-bi ping-pong fit with competitive inhibitor; type: biochemical
Description: ALT enzyme kinetics were measured to determine the impact of the ALT5-8 peptide on the activity of the enzyme. Kinetic experiments were performed in a coupled assay where the pyruvate generated by ALT was reduced to lactate by LDH with the concomitant oxidation of NADH. The depletion of NADH was monitored by following its absorbance at 340 nm in UV-transparent microplates. […] The reactions were initiated by the addition of 330 U/L ALT and all measurements were made in triplicate. All stock solutions were prepared in 100 mM Tris-HCl buffer (pH 7.8), and all kinetic trials were conducted 300 µL at 37 °C. […] Free ALT5-8 peptide inhibitor (I) was added to the reactions at concentrations from 0–0.25 µM.

ALT (human liver) [5] = molecular target: T1, ALT (human liver); assay: QCM binding of ALT to immobilized peptide; settings: ALT as compared to BSA and SA, 10 µg/mL each
From the text: All reagents used were analytical grade or higher unless otherwise stated. Escherichia coli strain ER2738, a host for M13 phage, and a polyvalent M13 phage display kit (Ph.D.-12) which contained random 12-mer peptides were obtained from New England Biolabs (Ipswich, MA). ALT (human liver) and lactate dehydrogenase (LDH) were obtained from Lee Biosolutions, Inc. (St. Louis, Missouri). Horseradish peroxidase (HRP) conjugated anti-M13 monoclonal antibody was from GE Healthcare (Piscataway, NJ). Tween 20, 2,2′-Azino-bis(3-ethylbenzothiazoline-6-sulfonic acid) diammonium salt (ABTS), streptavidin (SA) from Streptomyces avidinii, bovine serum albumin (BSA), L-cysteine hydrochloride (98%) and all other chemicals were purchased from Sigma-Aldrich (St. Louis, MO). Polystyrene microplates were from Pierce Biotechnology (Rockford, IL). The ALT5-8 peptide modified with a C-terminal cysteine (sequence: […]) was synthesized (>90% purity) by Genscript (Piscataway, NJ). Quartz crystals (AT-cut, 5 MHz) with Au deposited on both sides were obtained from Inficon (East Syracuse, New York). Buffer solutions (pH = 7.3) containing 0.01 M sodium phosphate and 0.1 M NaCl were used to make all protein (1–10 µg/mL) and peptide (0.1 mM) solutions for the QCM and EIS measurements. All solutions were prepared using Milli-Q water. […]

ALT (human liver) [6] = molecular target: T1, ALT (human liver); assay: Uninhibited ALT enzyme kinetics (coupled ALT/LDH assay); type: biochemical; settings: absence of peptide, pH 7.8, 37 °C, triplicate, bi-bi ping-pong fit (Eqn. 1)
Description: ALT enzyme kinetics were measured to determine the impact of the ALT5-8 peptide on the activity of the enzyme. Kinetic experiments were performed in a coupled assay where the pyruvate generated by ALT was reduced to lactate by LDH with the concomitant oxidation of NADH. The depletion of NADH was monitored by following its absorbance at 340 nm in UV-transparent microplates. […] Initial concentrations of pyridoxal 5′-phosphate, NADH, and LDH were 0.1 mM, 0.25 mM and 47 U/L respectively. The reactions were initiated by the addition of 330 U/L ALT and all measurements were made in triplicate. All stock solutions were prepared in 100 mM Tris-HCl buffer (pH 7.8), and all kinetic trials were conducted 300 µL at 37 °C.

alanine aminotransferase [7] = molecular target: T2, alanine aminotransferase (Homo sapiens, UniProt P24298); assay: enzyme inhibition kinetics
T2 chain: T1 sequence (P24298 2-496 limits assumed)

[8] = substrate: C[C@H](N)C(=O)O; assay: purified protein, by the assay type; settings: other: substrate of ALT, absence of peptide, pH 7.8, 37 °C, triplicate, bi-bi ping-pong fit (Eqn. 1)
alanine aminotransferase [9] = molecular target: T2, alanine aminotransferase; assay: phage ELISA
alanine aminotransferase [10] = molecular target: T2, alanine aminotransferase; assay: QCM

In the case of “WHWRNPDFWYLK [ALT5-8, 12-mer peptide selected by M13 phage display over ALT; tested on phage and as free peptide]”, the “limit of detection (LOD), EIS” value (ALT (human liver) [1]) is reported as 0.092 µg/mL, the “Frequency of sequence among sequenced clones” value (shortened to “Frequency”) (ALT (human liver) [2]) is reported as 10/12 and the “affinity of phage clone for immobilized ALT (in words)” value (“affinity of phage clone” for short) (ALT (human liver) [3]) is reported as “dose-dependent affinity for the ALT protein”. The mode of inhibition (ALT (human liver) [4]; Lineweaver-Burk plots, with respect to alanine) was “competitive inhibitor”, the “residual enzyme activity with peptide (in words)” value (ALT (human liver) [4]; peptide to protein ratio 2∶1) was “the enzyme was still quite active” and the “selectivity (in words)” value (ALT (human liver) [5]) was “selective for ALT as compared to BSA and SA”.

For SNNLYPQRAVST [ALT4-3], the “Frequency” value (ALT (human liver) [2]) was 1/12 and the “affinity of phage clone” value (ALT (human liver) [3]) was “low affinity for ALT similar to that of the M13 control phage”.

In the case of LETEWDSLWYAP [ALT5-9], the “Frequency” value (ALT (human liver) [2]) is reported as 1/12 and the “affinity of phage clone” value (ALT (human liver) [3]) is reported as “low affinity for ALT similar to that of the M13 control phage”.

α-ketoglutarate [reference compound] was tested, and the Km (ALT (human liver) [6]; substrate of ALT, read-out: Michaelis constant KM) was 90 ± 30 µM.

B1: ALT5-8 peptide (peptide)
chain: WHWRNPDFWYLK
B1 showed a Ki (alanine aminotransferase [7]) of 71 nM.

B2: ALT (human liver) (Homo sapiens) (protein)
chain: T1 sequence (P24298 2-496 limits assumed)
B2 showed a kcat (ALT (human liver) [6]) of 5.8 ± 0.2 s⁻¹ and a Km [8] of 8000 ± 900 µM.

B3: ALT5-8 peptide (phage-displayed) (peptide)
chain: WHWRNPDFWYLK
modifications: displayed on M13 phage
Molecule B3 has a Kd (alanine aminotransferase [9]) of 85 nM.

B4: ALT5-8 peptide (C-terminal Cys) (peptide)
chain: WHWRNPDFWYLKC
modifications: immobilized on gold via C-terminal cysteine
In the case of B4, the Kd (alanine aminotransferase [10]) is reported as 20.1 nM.
